# Patent publication US8691818B2, “Cyclic triazo and diazo sodium channel blockers” (University Of Greenwich, priority 2008, dated 2014)
# Like-named read-outs stand apart in the source and are kept apart here.
# Experiments:
# [1] = tested on: sodium channel; test: [14C]guanidine flux: veratrine-evoked uptake of [14C]guanidine into rat forebrain synaptosomes (primary sodium channel assay); type: biochemical; conditions: 30° for 2½ min
# Method in brief: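 Synaptosomal fraction from male Wistar rat forebrain (without cerebellum/medulla), 20-25 mg wet weight/ml. Veratrine-evoked [14C]guanidine uptake at 30° for 2½ min across a compound concentration range; IC50 from concentration-effect curves, mean±sem.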
# [2] = biological target: hERG (Homo sapiens, UniProt Q12809); test: hERG: inhibition of binding of [3H]astemizole to HEK-293 cells expressing human recombinant hERG; conditions: for inhibition at 10 µM: human, probe [3H]astemizole; for hERG % inhibition @ 10 μM: [3H]astemizole binding
# [3] = biological target: T1, DiHydroFolate Reductase (DHFR) (Rattus norvegicus, UniProt Q920D2); test: Inhibition of binding of [3H]methotrexate to rat liver homogenate supernatant; conditions: for inhibition at 125 µM: read-out: [3H]mtx binding (% inhibition @ 125 μM)
# T1 construct: from tissue; host or cells: rat liver homogenate supernatant
# T1 sequence (Q920D2 1-187): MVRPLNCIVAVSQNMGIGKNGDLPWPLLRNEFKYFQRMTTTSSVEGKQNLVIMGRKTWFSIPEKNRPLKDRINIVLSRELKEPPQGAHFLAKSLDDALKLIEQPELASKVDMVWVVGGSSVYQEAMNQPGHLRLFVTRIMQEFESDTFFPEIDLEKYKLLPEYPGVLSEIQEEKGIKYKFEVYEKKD
# Method in brief: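 Displacement of [3H]methotrexate binding to rat liver homogenate supernatant, prepared at 4 °C in pH 6.0 phosphate buffer with 15 mM dithiothreitol. Values are mean±sem over the number of experiments shown.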
# [4] = read-out: hERG IC50 (μM) (extrapolated from 10 μM inh'n), extrapolated assuming binding slope 1.0
# hERG, sequence (Q12809 whole entry): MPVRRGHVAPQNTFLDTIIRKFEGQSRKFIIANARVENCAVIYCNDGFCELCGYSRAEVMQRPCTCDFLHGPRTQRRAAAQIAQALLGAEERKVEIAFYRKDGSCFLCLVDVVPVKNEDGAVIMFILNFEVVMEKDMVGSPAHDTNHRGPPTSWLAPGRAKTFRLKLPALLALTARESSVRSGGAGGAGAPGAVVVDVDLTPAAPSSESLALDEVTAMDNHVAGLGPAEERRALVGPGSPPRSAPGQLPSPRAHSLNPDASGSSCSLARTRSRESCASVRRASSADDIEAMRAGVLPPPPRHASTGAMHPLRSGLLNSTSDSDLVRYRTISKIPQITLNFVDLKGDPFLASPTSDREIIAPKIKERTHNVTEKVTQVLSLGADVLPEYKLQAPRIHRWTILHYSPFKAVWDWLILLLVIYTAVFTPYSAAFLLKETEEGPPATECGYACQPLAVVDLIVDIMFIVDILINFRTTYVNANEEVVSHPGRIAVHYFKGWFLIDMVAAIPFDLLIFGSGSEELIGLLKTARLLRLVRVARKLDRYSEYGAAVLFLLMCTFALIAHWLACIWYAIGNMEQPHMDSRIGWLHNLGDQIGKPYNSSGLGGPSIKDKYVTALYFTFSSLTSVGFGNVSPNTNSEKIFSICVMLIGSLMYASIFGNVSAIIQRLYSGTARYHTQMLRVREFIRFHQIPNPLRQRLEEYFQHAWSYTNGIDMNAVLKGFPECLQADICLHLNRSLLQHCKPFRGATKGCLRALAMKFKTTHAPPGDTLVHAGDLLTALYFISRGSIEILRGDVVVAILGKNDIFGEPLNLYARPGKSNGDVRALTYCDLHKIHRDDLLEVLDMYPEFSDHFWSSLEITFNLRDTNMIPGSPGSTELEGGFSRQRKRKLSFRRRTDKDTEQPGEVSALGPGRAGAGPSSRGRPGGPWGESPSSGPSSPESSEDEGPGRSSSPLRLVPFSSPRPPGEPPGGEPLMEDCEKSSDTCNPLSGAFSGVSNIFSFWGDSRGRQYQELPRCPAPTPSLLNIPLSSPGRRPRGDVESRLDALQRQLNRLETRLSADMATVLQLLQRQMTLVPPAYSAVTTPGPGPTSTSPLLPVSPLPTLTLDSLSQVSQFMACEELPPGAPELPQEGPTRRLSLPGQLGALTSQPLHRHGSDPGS
Compound,IC50 [1] [µM],inhibition at 125 µM ([3]; 125 μM) [%],melting point,further results
"CCn1nc(-c2cc(C(C)(C)C)cc(C(C)(C)C)c2)c(N)nc1=N [CEN-189, 5(3)-Amino-6-(3,5 bis-tert-butylphenyl)-2,3(2,5)-dihydro-3(5)-imino-2-ethyl-1,2,4-triazine methanesulphonate]",468,2,–,IC50 [2]: 90 µM; inhibition at 10 µM [2]: 10%
"3,5-Diamino-6-[1-(2,5-dimethoxynaphthyl)-1,2,4-triazine [CEN-157]",204,–,–,"hERG % inhibition @ 10 μM [2]: 6%; IC50 [2, 4]: 157 µM; [3H]mtx binding (% inhibition @ 125 μM) ([3]; 125 μM): −1%"
"CCn1nc(-c2ccc3ccccc3c2)c(N)nc1=N [CEN-75, 5(3)-Amino-6-(2-naphthyl)-2,3(2,5)-dihydro-3(5)-imino-2-ethyl-1,2,4-triazine methanesulfonate]",49,5,–,IC50 [2]: 3 µM; inhibition at 10 µM [2]: 78%
"Cn1nc(-c2cccc(-c3ccccc3)c2)c(N)nc1=N [CEN-161, 5(3)-Amino-6-(3-biphenyl)-2,3(2,5)-dihydro-3(5)-imino-2-methyl-1,2,4-triazine methanesulfonate]",16,-7,–,IC50 [2]: 1 µM; inhibition at 10 µM [2]: 88%
"Nc1nnc(-c2ccc(Cl)nc2Cl)c(N)n1 [CEN-174, 3,5-Diamino-6-[3-(2,6-dichloropyidyl)]-1,2,4-triazine]",589,4,–,IC50 [2]: 101 µM; inhibition at 10 µM [2]: 9%
"Nc1nnc(-c2cc(C(F)(F)F)ccc2Cl)c(N)n1 [CEN-169, 3,5-Diamino-6-(2-chloro 5 trifluoromethylphenyl)-1,2,4-triazine]",347,95,238 to 239 °C,–
"Cn1nc(-c2cccc(Oc3ccccc3)c2)c(N)nc1=N [CEN-106, 5(3)-Amino-6-(3-phenoxyphenyl)-2,3(2,5)-dihydro-3(5)-imino-2-methyl-1,2,4-triazine]",26.9,43,160 to 161 °C,–
"Nc1nnc(-c2cc(Br)c(Br)o2)c(N)n1 [CEN-121, 3,5-Diamino-6-[2-(4,5-dibromofuryl)]-1,2,4-triazine]",> 1000,92,272 to 275 °C,–
COc1cc(-c2nnc(N)nc2N)c(OC)c2ccccc12 [CEN-151],67.6,76,142 to 144 °C,–
"CS(=O)(=O)O.Cn1nc(C23CC4CC(CC(C4)C2)C3)c(N)nc1=N [CEN-100, 6-Adamantyl-5(3)-amino-2,3(2,5)-dihydro-3(5)-imino-2-methyl-1,2,4-triazine methanesulfonate]",77.6,–,–,"hERG % inhibition @ 10 μM [2]: 30%; IC50 [2, 4]: 23 µM; [3H]mtx binding (% inhibition @ 125 μM) ([3]; 125 μM): 10%"
"Nc1nnc(-c2ccc(-c3ccccc3)cc2)c(N)n1 [CEN-82, 3,5-Diamino-6-(4-biphenyl)-1,2,4-triazine]",> 1000,-8,282 to 284 °C,–
"CCCCc1ccc(-c2nnc(N)nc2N)cc1 [CEN-183, 3,5-Diamino-6-(4-n-butylphenyl)-1,2,4-triazine]",39,106,184 to 186 °C,–
"Nc1nnc(-c2cc(Cl)cc(C(F)(F)F)c2)c(N)n1 [CEN-172, 3,5-Diamino-6-(3-chloro-5-trifluoromethylphenyl)-1,2,4-triazine]",234,100,249 to 251 °C,–
"Nc1nnc(-c2cccs2)c(N)n1 [CEN-57, 3,5-Diamino-6-(2-thienyl)-1,2,4-triazine]",> 2000,44,271 to 272 °C (dec.),–
"Cn1nc(-c2cccc3c2CCCC3)c(N)nc1=N [CEN-120, 5(3)-Amino-6-[1-(5,6,7,8-tetrahydronaphthyl)]-2,3(2,5)-dihydro-3(5)-imino-2-methyl-1,2,4-triazine methanesulfonate]",195,18,–,IC50 [2]: 157 µM; inhibition at 10 µM [2]: 6%
"Nc1nnc(-c2cc(C(F)(F)F)cc(Cl)c2F)c(N)n1 [CEN-197, 3,5-Diamino-6-(3-chloro-2-fluoro-5-trifluoromethylphenyl)-1,2,4-triazine]",91,–,218 to 220 °C,"inhibition at 99 µM ([3]; read-out: [3H]mtx binding % inhibition (* 99 μM, *** uses fresh batch of supernatant), 99 μM, fresh batch of supernatant): 95%"
"Nc1nnc(-c2ccccc2Oc2ccccc2)c(N)n1 [CEN-97, 3,5-Diamino-6-(2-phenoxphenyl)-1,2,4-triazine]",363,101,200 to 202 °C,–
"Nc1nnc(-c2ccc(-c3ccccc3)o2)c(N)n1 [CEN-107, 3,5-Diamino-6-[2-(5-phenylfuryl)]-1,2,4-triazine]",1170,48,247 to 249 °C,–
Nc1nnc(-c2cccc3c2CCCC3)c(N)n1 [CEN-94],398,-2,202 to 204 °C,–

Compound,IC50 [1] [µM],inhibition at 125 µM ([3]; 125 μM) [%],melting point,further results
"Nc1nnc(-c2ccccc2-c2ccccc2)c(N)n1 [CEN-74, 3,5-Diamino-6-(2-biphenyl)-1,2,4-triazine]",295,99,222 to 224 °C,–
"Cn1nc(-c2ccc3ccccc3c2)c(N)nc1=N [CEN-76, 5(3)-Amino-6-(2-naphthyl)-2,3(2,5)-dihydro-3(5)-imino-2-methyl-1,2,4-triazine methanesulfonate]",77.6,6,–,IC50 [2]: 4 µM; inhibition at 10 µM [2]: 74%
Nc1nnc2c3ccccc3c3ccccc3c2n1 [CEN-128],251,–,–,IC50 [2]: 53 µM; inhibition at 10 µM [2]: 16%; inhibition at 125 µM [3]: 0%
"COc1ccc2cc(C(C)c3nnc(N)nc3N)ccc2c1 (stereo not shown) [CEN-165, 3,5-Diamino-6-[1-(6-methoxynaphthalene)ethy)-1,2,4-triazine]",372,–,–,"hERG % inhibition @ 10 μM [2]: 23%; IC50 [2, 4]: 34 µM; [3H]mtx binding (% inhibition @ 125 μM) ([3]; 125 μM): −4%"
"Nc1nnc(C(c2ccccc2)(c2ccccc2)c2ccccc2)c(N)n1 [CEN-153, 3,5-Diamino-6-(triphenylmethy)-1,2,4-triazine]",50.1,2,124 to 126 °C,–
"Nc1nnc(-c2ccccc2OC(F)(F)C(F)F)c(N)n1 [CEN-137, 3,5-Diamino-6-[2-(1,1,2,2-tetrafluoroethoxy)phenyl]-1,2,4-triazine]",> 2000,23,158 to 160 °C,–
"Nc1cnc(-c2ccc3ccccc3c2)c(N)n1 [CEN-88, 2,6-Diamino-3-(2-naphthyl)pyrazine]",190,82,163 to 165 °C,–
"Nc1nnc(-c2cc3ccccc3s2)c(N)n1 [CEN-113, 3,5-Diamino-6-[2-(benzo[b]thiophenyl)]-1,2,4-triazine]",2000,65,344 to 345 °C,–
"Nc1nnc(-c2cccc(OCc3ccccc3)c2)c(N)n1 [CEN-123, 3,5-Diamino-6-(3-Benzyloxyphenyl)-1,2,4-triazine]",41.7,86,284 to 286 °C,–
"CC(c1ccccc1)(c1ccccc1)c1nnc(N)nc1N [CEN-147, 3,5-Diamino-6-(1,1-diphenylethyl)-1,2,4-triazine]",60.3,4,197 to 199 °C,–
Nc1nnc(-c2ccccc2OC(F)F)c(N)n1 [CEN-142],> 2000,12,154 to 155 °C,–
Nc1nnc(-c2ccc3cc(Br)ccc3c2)c(N)n1 [CEN-96],110,105,260 to 262 °C,–
"CC(C)(C)c1ccc(-c2nnc(N)nc2N)cc1 [CEN-181, 3,5-Diamino-6-(4-tertbutylphenyl)-1,2,4-triazine]",74,101,275 to 276 °C,–
"Nc1nnc(-c2ccccc2Cl)c(-c2ccccc2Cl)n1 [CEN-132, 3-Amino-5,6-bis(2-chlorophenyl)-1,2,4-triazine]",69.2,4,240 to 242 °C,–
"Nc1nnc(-c2c3ccccc3cc3ccccc23)c(N)n1 [CEN-118, 6-(9-Anthracenyl)-3,5-diamino-1,2,4-triazine]",1150,-7,350 to 352 °C,–
"Nc1nnc(-c2sc3ccccc3c2Cl)c(N)n1 [CEN-114, 3,5-Diamino-6-[2-(3-chlorobenzo[b]thiophenyl)]-1,2,4-triazine]",174,46,318 to 320 °C,–
"Nc1nnc(C2(c3ccc(Cl)cc3)CC2)c(N)n1 [CEN-154, 3,5-Diamino-6-[1-(4-chlorophenyl)-1-cyclopropyl]-1,2,4-triazine]",162,13,157 to 159 °C,–
"Nc1nnc(-c2ccc3c(c2)OCO3)c(N)n1 [CEN-103, 3,5-Diamino-6-(3,4-methylenedioxyphenyl)-1,2,4-triazine]",> 1000,47,217 to 218 °C,–
